4 compounds from ChEMBL document CHEMBL1201862, “PubChem BioAssay data set” (2004) can be followed below.

Structures are written as SMILES. Activity calls are given as the source filed them. Some results are limits rather than exact numbers.

For one assay, the target named is Aurora kinase B (Homo sapiens, UniProt Q96GD4). Type of assay: functional.
Assay [1] concerns the target Serine/threonine-protein kinase 3 (Homo sapiens, UniProt Q13188). Type of assay: functional.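 Also: measured as one member of a kinome-wide kinase panel.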
For another assay, the target named is Focal adhesion kinase 1 (Homo sapiens, UniProt Q05397). Type of assay: functional.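 Also: measured as one member of a kinome panel.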
Assay [2] concerns the target Tyrosine-protein kinase HCK (Homo sapiens, UniProt P08631). As to the kind of experiment: Navigating the Kinome. Panel member name: HCK. Type of assay: functional.
Assay [3] has as its target Casein kinase I isoform alpha (Homo sapiens, UniProt P48729). Type of assay: functional.
The target in assay [4] is Tyrosine-protein kinase ABL1 (Homo sapiens, UniProt P00519). It counts as functional.
Assay [5] has as its target Maternal embryonic leucine zipper kinase (Homo sapiens, UniProt Q14680). It counts as functional.
In assay [6] the target is Serine/threonine-protein kinase Chk1 (Homo sapiens, UniProt O14757). It counts as functional.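 Also: measured as one member of a kinome-wide kinase profiling panel.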
The next assay has as its target LIM domain kinase 1 (Homo sapiens, UniProt P53667). The experiment in a line: Navigating the Kinome. Panel member name: LIMK1. It counts as functional.
The target of assay [7] is Tyrosine-protein kinase Lck (Homo sapiens, UniProt P06239). Type of assay: functional.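 Also: lck was assayed as one member of a kinase panel.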
Another assay addresses Cytochrome P450 2C19 (Homo sapiens, UniProt P33261). As to the kind of experiment: Cytochrome panel assay with activity outcomes. Panel member name: p450-cyp2c19 Compounds with AC50 equal or less than 10 uM are considered active. Type of assay: functional. As to conditions: read-out: AC50.
The target in assay [8] is Mitogen-activated protein kinase kinase kinase kinase 4 (Homo sapiens, UniProt O95819). Type of assay: functional.
For assay [9], the target named is T1, Replicative DNA helicase DnaB (Mycobacterium tuberculosis, UniProt P9WMR3).
T1 sequence (P9WMR3 whole entry): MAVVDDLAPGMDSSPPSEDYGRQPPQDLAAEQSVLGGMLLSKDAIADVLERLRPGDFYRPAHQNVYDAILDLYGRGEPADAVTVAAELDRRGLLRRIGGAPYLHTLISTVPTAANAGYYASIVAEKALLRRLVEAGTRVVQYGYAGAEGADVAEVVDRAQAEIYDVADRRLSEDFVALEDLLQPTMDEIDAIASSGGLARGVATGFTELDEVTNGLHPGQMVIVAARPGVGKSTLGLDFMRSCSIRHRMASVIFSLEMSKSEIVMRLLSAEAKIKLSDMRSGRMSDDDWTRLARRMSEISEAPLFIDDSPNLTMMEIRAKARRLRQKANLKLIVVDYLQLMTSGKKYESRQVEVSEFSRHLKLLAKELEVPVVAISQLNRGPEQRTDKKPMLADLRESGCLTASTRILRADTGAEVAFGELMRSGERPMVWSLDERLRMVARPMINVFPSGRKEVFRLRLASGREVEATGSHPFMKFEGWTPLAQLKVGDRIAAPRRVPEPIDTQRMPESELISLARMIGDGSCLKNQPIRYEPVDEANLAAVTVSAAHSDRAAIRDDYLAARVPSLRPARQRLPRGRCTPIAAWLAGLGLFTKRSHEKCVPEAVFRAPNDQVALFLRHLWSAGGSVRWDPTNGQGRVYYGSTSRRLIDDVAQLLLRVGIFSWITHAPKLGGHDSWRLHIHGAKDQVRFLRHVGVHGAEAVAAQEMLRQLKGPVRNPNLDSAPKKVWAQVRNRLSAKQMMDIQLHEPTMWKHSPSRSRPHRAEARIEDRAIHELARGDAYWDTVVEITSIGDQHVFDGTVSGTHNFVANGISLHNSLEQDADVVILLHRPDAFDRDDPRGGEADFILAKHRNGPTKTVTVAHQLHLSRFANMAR
As to the kind of experiment: DnaB intein splicing inhibitors, dose response, biochemical, cell-free fluorescence (AID 449749). Type of assay: functional.

Another assay deals with ORF 73 (Human herpesvirus 8, UniProt O40947). As to the kind of experiment: inhibitors of C-LANA binding to LBS DNA, dose response, biochemical, fluorescence polarization, cherry-picked samples (AID 504725).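 Also: fluorescence polarization of a labeled DNA duplex reporting LANA DNA binding; potency is for inhibitors that block LANA binding to the DNA.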 On the set-up: species or system Human gammaherpesvirus 8.
The target in another assay is Troponin, cardiac muscle (Homo sapiens, UniProt P19429+P45379+P63316). The experiment in a line: Fluorescence-based biochemical high throughput dose response assay for activators of the calcium sensitivity of cardiac Regulated Thin Filaments (RTF). [Related pubchem assays (depositor defined):AID493008, AID493018, AID504382, AID504383]. It counts as protein-complex assay.

In assay [10] the target is NACHT, LRR and PYD domains-containing protein 1 (Homo sapiens, UniProt Q9C000). As to the kind of experiment: NALP1 inhibitors in yeast, dose response, luminescent (AID 488860). Type of assay: functional.
Assay [11] deals with T2, RNA-binding protein pos-1 (Caenorhabditis elegans, UniProt G5EF15).
T2 sequence (G5EF15 whole entry): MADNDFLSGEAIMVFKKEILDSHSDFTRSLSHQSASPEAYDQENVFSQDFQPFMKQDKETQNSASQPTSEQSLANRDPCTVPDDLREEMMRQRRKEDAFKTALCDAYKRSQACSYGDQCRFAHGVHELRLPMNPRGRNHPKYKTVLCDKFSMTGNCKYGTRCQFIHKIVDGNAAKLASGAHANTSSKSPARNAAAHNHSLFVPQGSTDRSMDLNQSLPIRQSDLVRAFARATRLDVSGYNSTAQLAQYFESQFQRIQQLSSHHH
As to the kind of experiment: inhibitors of POS-1/mex-3 RNA binding, dose response, biochemical, fluorescence polarization (AID 1964).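 Also: purified POS-1 fused to maltose binding protein made in E. coli; potency of compounds blocking POS-1 binding to fluorescent RNA.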

Assay [12] deals with Cyclin-dependent kinase 2 (Homo sapiens, UniProt P24941). It counts as functional.
Assay [13] deals with Serine/threonine-protein kinase N2 (Homo sapiens, UniProt Q16513). It counts as functional.
The target of assay [14] is Homeodomain-interacting protein kinase 2 (Homo sapiens, UniProt Q9H2X6). It counts as functional.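 Also: measured within a kinome-wide kinase profiling panel, HIPK2 being one panel member.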
Assay [15] concerns the target Mitogen-activated protein kinase 9 (Homo sapiens, UniProt P45984). Type of assay: functional.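 Also: value from a kinome panel profiling assay, MAPK9 panel entry.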
Assay [16] concerns the target Mitogen-activated protein kinase 14 (Homo sapiens, UniProt Q16539). It counts as functional.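 Also: part of a kinome-wide panel, MAPK14 entry.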

Turning to `Oc1ccc(-c2nc(-c3ccncc3)c(-c3ccc(F)cc3)[nH]2)cc1` [SB-202190], the Ki is > 3.98 µM (inactive) at Aurora kinase B; > 2.51 µM (inactive) in assay [1]; > 3.98 µM (inactive) at Focal adhesion kinase 1; > 3.16 µM (inactive) in assay [2]; 1 µM (active) in [3]; > 2.51 µM (inactive) in assay [4]. In addition, the Ki in assay [5] is > 2 µM (inactive); in assay [6] it was > 3.16 µM (inactive); at LIM domain kinase 1 it was > 3.16 µM (inactive); in assay [7], > 5.01 µM (inactive); in assay [8] it was 1 µM (active). In addition, at Cytochrome P450 2C19, the AC50 was 10 µM (inconclusive).
As for `c1ccc2nc3cc4[nH]cnc4cc3nc2c1`, the AC50 in assay [9] was 19.5 µM (active); at ORF 73 it was 7.45 µM (active). The EC50 was 5.37 µM (active) at Troponin, cardiac muscle and 7.59 µM (inconclusive) in assay [11]. Also, the IC50 in assay [10] was > 100 µM (inactive).
For the compound `CCCCC(=O)Nc1cc(-c2c[nH]c3ncccc23)cc(Cl)n1`, the Ki in assay [1] is > 3.16 µM (inactive); in assay [12] it was > 3.16 µM (inactive); in [3] it was 0.794 µM (active); in assay [5], > 2 µM (inactive); in assay [13] it was > 5.01 µM (inactive); in assay [14], > 3.98 µM (inactive). Moreover, the Ki in assay [15] and in assay [16] was > 3.98 µM (inactive) in each case.
In the case of `COc1cccc(C(C)NC(=O)c2sc(-c3ccncc3)nc2C)c1` (configuration not stated), the Ki is > 3.98 µM (inactive) at Aurora kinase B; > 2.51 µM (inactive) in assay [4]; > 3.16 µM (inactive) in assay [6]; > 3.16 µM (inactive) at LIM domain kinase 1; > 6.31 µM (inactive) in assay [7]; > 3.98 µM (inactive) in [15]. Also, the Ki in assay [16] is > 3.98 µM (inactive).

By Ki is commonly meant the dissociation constant of the complex between target and ligand, obtained from inhibition or displacement. What is called AC50 is the concentration giving half of the maximal activity seen. Usually EC50 stands for the concentration at which the effect is half-maximal. The IC50 is the concentration that gives 50% inhibition.
